Experimental data reported in patent EP4371586B1, “MULTIFUNCTIONAL CHITOSAN COMPOSITES FOR BONE DEFECT FILLING AND BONE TISSUE REGENERATION AND METHODS FOR OBTAINING THEM” (Siec Badawcza Lukasiewicz - Instytut Ceramiki i Materialow …, priority 2022, dated 2024).
Ends that are not written are not given here. Peptide text beside a SMILES is read from it.

How the values were obtained:
[1] = system: hFOB human osteoblast cell line; assay: WST-1 proliferation assay of peptides, indirect method per ISO 10993-5; format: cell-based; details: % of proliferation of control cells
Protocol: Cytotoxicity was tested by an indirect method based on the guidelines in ISO 10993- 5 on the hFOB human osteoblast cell line (ATCC) using the LDH assay (Roche). The results presented were averaged from two technical repeats and presented as % relative to control cells treated with 1% Triton X- 100 solution. proliferation was tested by an indirect method based on the guidelines in ISO 10993- 5 on the hFOB human osteoblast cell line (ATCC) using the WST-1 assay (Abcam). The results shown were averaged from two technical repeats and presented as % in relation to control cells cultured without added peptides.
Proliferation and cytotoxicity data were analysed and visualised using GraphPad Prism 8 software (GraphPad Software, USA). Statistical analysis was performed using the Kruskal- Wallis test (p = 0.05). In the next step, the Benjamini, Krieger and Yekutielli multiple comparisons test was performed to control the false discovery rate (p = 0.05). Comparisons were made between results obtained for individual peptide concentrations.

[2] = system: Staphylococcus aureus PCM 2602; assay: MIC by microdilution method (CLSI M07-A9); format: cell-based; details: 24 hours at 37 °C, BHI medium, range 3.125 - 250 µg/ml
Protocol: The antimicrobial properties of the peptide were tested based on Clinical and Laboratory Standards Institute (CLSI) guidelines according to CLSI M07-A9 2012 using the microdilution method. Two bacterial pathogens were used for the study: Gram-positive Staphylococcus aureus PCM 2602 and Gram-negative Pseudomonas aeruginosa PCM 2563.
The bacterial inoculum for the experiment was prepared by direct inoculation of Brain-Heart Infusion medium (BHI) with bacteria from a 24-hour culture on solid medium. The density of the suspension was 0.5 on the McFarland scale. The peptide concentration analysed : 3.125 - 250 µg/ml . Serial dilutions were performed in a 96-well, flat-bottomed, hydrophobic cell culture plate using BHI liquid medium. Then the previously prepared bacterial suspension was added. The final number of pathogens in each well was approximately 5 × 10^5 CFU/ml (Colony Forming Units per millilitre). Microplates were incubated for 24 hours at 37 °C under aerobic conditions. The minimum inhibitory concentration (MIC) for a peptide was defined as the lowest concentration of peptide in a well where no bacterial growth was observed. All experiments were performed in triplicate. Table 3. Minimum microbial growth inhibitory concentration values for peptide ug46 against the bacteria S. aureus PCM 2602 and P. aeruginosa PCM 2563.

Row | Compound | proliferation ([1]; any ug1/ug4 peptide concentration (none lower)) [%] | proliferation ([1]; most concentrations of ug1/ug4 peptide) | Minimum inhibitory concentration of microorganisms (MIC) S. aureus PCM 2602 [2] [µg/mL]
1 | CPLGLYGFGG [ug4, engineered pro-regenerative peptide] | ≥ 70 | above 100% | 
2 | CC[C@H](C)[C@H](NC(=O)CNC(=O)[C@H](C)NC(=O)[C@H](CCC(N)=O)NC(C)=O)C(=O)N[C@H](C(=O)N[C@H](C(=O)N1CCC[C@H]1C(=O)N[C@@H](CC(C)C)C(=O)NCC(=O)N[C@@H](CC(C)C)C(=O)NCC(=O)N[C@@H](CC(C)C)C(=O)N[C@@H](CC(C)C)C(=O)N[C@@H](CCCCN)C(=O)N[C@@H](CCCNC(=N)N)C(=O)N[C@H](C(=O)N[C@@H](CCCCN)C(=O)N[C@H](C(=O)N[C@@H](CC(C)C)C(=O)N[C@@H](CC(C)C)C(N)=O)[C@@H](C)O)[C@@H](C)CC)C(C)C)C(C)C [ug46] (Ac-QAGIVVPLGLGLLKRIKTLL-NH2) |  |  | 100
